According to patent US20260226068A1, “IMIDAZOTRIAZINE IL-17A MODULATORS AND USES THEREOF” (DICE ALPHA, INC., priority 2023, published 2026):

How the values were obtained:
IL-17A/A = target: T1, IL-17A/A (Homo sapiens, UniProt Q16552); experiment: IL-17A/A HEK-Blue cell assay (SEAP reporter); format: cell-based; details: HEK-Blue IL-17A reporter cells, IL17A/A 5 ng/mL, 20 hours, SEAP read at A630; read-out: HEK-Blue IL17AA (IC50 for IL-17A/A inhibition)
T1 construct: purchased Genscript Z03228
T1 sequence (Q16552 24-155): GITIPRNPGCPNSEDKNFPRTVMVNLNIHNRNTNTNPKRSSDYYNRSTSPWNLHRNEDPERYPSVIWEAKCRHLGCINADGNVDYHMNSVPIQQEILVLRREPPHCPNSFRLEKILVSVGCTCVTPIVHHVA

IL-17A/F = target: T2, IL-17A/F (Homo sapiens, UniProt Q16552+Q96PD4); experiment: IL-17A/F HEK-Blue cell assay (SEAP reporter); format: cell-based; details: HEK-Blue IL-17A reporter cells, IL17A/F 5 ng/mL, 20 hours, SEAP read at A630; read-out: HEK-Blue IL17AF (IC50 for IL-17A/F inhibition)
T2 construct: purchased R&D Systems
T2 sequence (Q16552 24-155): T1 sequence (Q16552 24-155)
T2 sequence (Q96PD4 31-163): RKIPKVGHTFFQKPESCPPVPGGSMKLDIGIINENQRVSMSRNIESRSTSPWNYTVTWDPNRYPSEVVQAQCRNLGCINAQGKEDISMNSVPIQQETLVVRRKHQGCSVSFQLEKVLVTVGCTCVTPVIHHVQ

IC50 (IL-17A/A) | IC50 (IL-17A/F) | Compound
< 100 nM | 100 to 1000 nM | CCc1nonc1C(=O)N[C@H](c1cn2nc(C[C@H]3C[C@@H](C(F)(F)F)CNC3=O)c(C3CCOCC3)nc2n1)C1CCCCC1 [Compound 221, N—((S)-cyclohexyl(2-(((3R,5R)-2-oxo-5-(trifluoromethyl)piperidin-3-yl)methyl)-3-(tetrahydro-2H-pyran-4-yl)imidazo[1,2-b][1,2,4]triazin-6-yl)methyl)-4-ethyl-1,2,5-oxadiazole-3-carboxamide]
< 100 nM | > 1000 nM | CCn1nccc1C(=O)N[C@H](c1cn2nc(C[C@@H]3CC(F)(F)CNC3=O)c(C3CCOCC3)nc2n1)C1CCC(F)(F)CC1 [Compound 222]
< 100 nM | 100 to 1000 nM | CCn1nccc1C(=O)N[C@H](c1cn2nc(C[C@@H]3CC(F)(F)CNC3=O)c(C3CCOCC3)nc2n1)[C@H]1CC[C@H](C)CC1 [Compound 223]
< 100 nM | > 1000 nM | CCn1nccc1C(=O)N[C@H](c1cn2nc(C[C@H]3C[C@@H](C(F)(F)F)CNC3=O)c(C3CCCN(CCOC)C3)nc2n1)C1CCC(F)(F)CC1 (stereo partly drawn) [Compound 226, N-((1S)-(4,4-difluorocyclohexyl)(3-(1-(2-methoxyethyl)piperidin-3-yl)-2-(((3R,5R)-2-oxo-5-(trifluoromethyl)piperidin-3-yl)methyl)imidazo[1,2-b][1,2,4]triazin-6-yl)methyl)-1-ethyl-1H-pyrazole-5-carboxamide]
< 100 nM | > 1000 nM | Cn1ncnc1C(=O)N[C@H](c1cn2nc(C[C@H]3C[C@@H](C(F)(F)F)CNC3=O)c(C3CCOCC3)nc2n1)C1CCC(F)(F)CC1 [Compound 228]
100 to 1000 nM | > 1000 nM | CCn1nccc1C(=O)N[C@H](c1cn2nc(C[C@H]3C[C@@H](C(F)(F)F)CNC3=O)c(C3CCCCN3C)nc2n1)C1CCC(F)(F)CC1 (some centres unmarked) [Compound 230]
< 100 nM | 100 to 1000 nM | CCn1nccc1C(=O)N[C@H](c1cn2nc(C[C@H]3C[C@@H](C(F)(F)F)CNC3=O)c(C3CCS(=O)(=O)CC3)nc2n1)C1CCC(F)(F)CC1 [Compound 234, N—((S)-(4,4-difluorocyclohexyl)(3-(1,1-dioxidotetrahydro-2H-thiopyran-4-yl)-2-(((3R,5R)-2-oxo-5-(trifluoromethyl)piperidin-3-yl)methyl)imidazo[1,2-b][1,2,4]triazin-6-yl)methyl)-1-ethyl-1H-pyrazole-5-carboxamide]
< 100 nM | 100 to 1000 nM | CCn1nccc1C(=O)N[C@H](c1cn2nc(C[C@H]3C[C@@H](C(F)(F)F)CNC3=O)c(N3CCOC[C@H]3C)nc2n1)C1CCC(F)(F)CC1 [Compound 236]
< 100 nM | 100 to 1000 nM | CCn1nccc1C(=O)N[C@H](c1cn2nc(C[C@H]3C[C@@H](C(F)(F)F)CNC3=O)c(N(C)CCOC)nc2n1)C1CCC(F)(F)CC1 [Compound 237, N—((S)-(4,4-difluorocyclohexyl)(3-((2-methoxyethyl)(methyl)amino)-2-(((3R,5R)-2-oxo-5-(trifluoromethyl)piperidin-3-yl)methyl)imidazo[1,2-b][1,2,4]triazin-6-yl)methyl)-1-ethyl-1H-pyrazole-5-carboxamide]

More lines, now with the values behind:

Compound | IC50 (IL-17A/A) | IC50 (IL-17A/F)
CCn1nccc1C(=O)N[C@H](c1cn2nc(C[C@H]3C[C@@H](C(F)(F)F)CNC3=O)c(C3CCOCC3)nc2n1)C1CCCCC1 [Compound 196, N-((1S)-cyclohexyl(2-(((3R,5R)-2-oxo-5-(trifluoromethyl)piperidin-3-yl)methyl)-3-(tetrahydro-2H-pyran-4-yl)imidazo[1,2-b][1,2,4]triazin-6-yl)methyl)-1-ethyl-1H-pyrazole-5-carboxamide] | < 100 nM | < 100 nM
CCn1nccc1C(=O)N[C@H](c1cn2nc(C[C@H]3C[C@@H](C(F)(F)F)CNC3=O)c(C3CCOCC3)nc2n1)C1CC2(C1)CC(F)(F)C2 [Compound 197] | < 100 nM | > 1000 nM
CCn1nccc1C(=O)N[C@@H](c1cn2nc(C[C@H]3C[C@@H](C(F)(F)F)CNC3=O)c(C3CCOCC3)nc2n1)C1CC2CC2C1 (some centres unmarked) [Compound 198] | < 100 nM | 100 to 1000 nM
CCn1nccc1C(=O)N[C@H](c1cn2nc(C[C@H]3C[C@@H](C(F)(F)F)CNC3=O)c(N3CCN(C)[C@@H](C)C3)nc2n1)C1CCC(F)(F)CC1 [Compound 200] | < 100 nM | 100 to 1000 nM
CCn1nccc1C(=O)N[C@H](c1cn2nc(C[C@H]3C[C@@H](C(F)(F)F)CNC3=O)c(N[C@H]3CC[C@@H](OC)CC3)nc2n1)C1CCC(F)(F)CC1 [Compound 201] | < 100 nM | 100 to 1000 nM
CCn1nccc1C(=O)N[C@H](c1cn2nc(C[C@H]3C[C@@H](C(F)(F)F)CNC3=O)c(C(C)C)nc2n1)[C@H]1CCCC(F)(F)C1 [Compound 205, N-((1S)—((S)-3,3-difluorocyclohexyl)(3-isopropyl-2-(((3R,5R)-2-oxo-5-(trifluoromethyl)piperidin-3-yl)methyl)imidazo[1,2-b][1,2,4]triazin-6-yl)methyl)-1-ethyl-1H-pyrazole-5-carboxamide] | < 100 nM | < 100 nM
CCn1nccc1C(=O)N[C@H](c1cn2nc(C[C@H]3C[C@@H](C(F)(F)F)CNC3=O)c(C(C)C)nc2n1)[C@@H]1CCCC(F)(F)C1 [Compound 206, N-((1S)—((R)-3,3-difluorocyclohexyl)(3-isopropyl-2-(((3R,5R)-2-oxo-5-(trifluoromethyl)piperidin-3-yl)methyl)imidazo[1,2-b][1,2,4]triazin-6-yl)methyl)-1-ethyl-1H-pyrazole-5-carboxamide] | < 100 nM | 100 to 1000 nM
CC(C)n1nccc1C(=O)N[C@H](c1cn2nc(C[C@H]3C[C@@H](C(F)(F)F)CNC3=O)c(C3CCOCC3)nc2n1)[C@H]1CCCC(F)(F)C1 [Compound 211, N-((1S)—((S)-3,3-difluorocyclohexyl)(2-(((3R,5R)-2-oxo-5-(trifluoromethyl)piperidin-3-yl)methyl)-3-(tetrahydro-2H-pyran-4-yl)imidazo[1,2-b][1,2,4]triazin-6-yl)methyl)-1-isopropyl-1H-pyrazole-5-carboxamide] | < 100 nM | < 100 nM
CCn1nccc1C(=O)N[C@H](c1cn2nc(C[C@H]3C[C@@H](C(F)(F)F)CNC3=O)c(C3(F)CCOCC3)nc2n1)C1CCC(F)(F)CC1 [Compound 212, N-((1S)-(4,4-difluorocyclohexyl)(3-(4-fluorotetrahydro-2H-pyran-4-yl)-2-(((3R,5R)-2-oxo-5-(trifluoromethyl)piperidin-3-yl)methyl)imidazo[1,2-b][1,2,4]triazin-6-yl)methyl)-1-ethyl-1H-pyrazole-5-carboxamide] | < 100 nM | 100 to 1000 nM
CCn1nccc1C(=O)N[C@H](c1cn2nc(C[C@H]3C[C@@H](C(F)(F)F)CNC3=O)c(CC3CCCOC3)nc2n1)C1CCC(F)(F)CC1 (stereo partly drawn) [Compound 213, N-((1S)-(4,4-difluorocyclohexyl)(2-(((3R,5R)-2-oxo-5-(trifluoromethyl)piperidin-3-yl)methyl)-3-((tetrahydro-2H-pyran-3-yl)methyl)imidazo[1,2-b][1,2,4]triazin-6-yl)methyl)-1-ethyl-1H-pyrazole-5-carboxamide] | < 100 nM | 100 to 1000 nM
CCn1nccc1C(=O)N[C@H](c1cn2nc(C[C@H]3C[C@@H](C(F)(F)F)CNC3=O)c(C(C)C(F)(F)F)nc2n1)C1CCC(F)(F)CC1 (stereo partly drawn) [Compound 214, N-((1S)-(4,4-difluorocyclohexyl)(2-(((3R,5R)-2-oxo-5-(trifluoromethyl)piperidin-3-yl)methyl)-3-(1,1,1-trifluoropropan-2-yl)imidazo[1,2-b][1,2,4]triazin-6-yl)methyl)-1-ethyl-1H-pyrazole-5-carboxamide] | < 100 nM | 100 to 1000 nM
C=CCCc1nc2nc([C@@H](NC(=O)c3ccnn3CC)C3CCC(F)(F)CC3)cn2nc1C[C@H]1C[C@@H](C(F)(F)F)CNC1=O [Compound 215, N-((1S)-(3-(but-3-en-1-yl)-2-(((3R,5R)-2-oxo-5-(trifluoromethyl)piperidin-3-yl)methyl)imidazo[1,2-b][1,2,4]triazin-6-yl)(4,4-difluorocyclohexyl)methyl)-1-ethyl-1H-pyrazole-5-carboxamide] | < 100 nM | 100 to 1000 nM
CCn1nccc1C(=O)N[C@H](c1cn2nc(C[C@H]3C[C@@H](C(F)(F)F)CNC3=O)c(C(C)(C)F)nc2n1)C1CCC(F)(F)CC1 [Compound 216, N-((1S)-(4,4-difluorocyclohexyl)(3-(2-fluoropropan-2-yl)-2-(((3R,5R)-2-oxo-5-(trifluoromethyl)piperidin-3-yl)methyl)imidazo[1,2-b][1,2,4]triazin-6-yl)methyl)-1-ethyl-1H-pyrazole-5-carboxamide] | < 100 nM | 100 to 1000 nM
Cn1nccc1C(=O)N[C@H](c1cn2nc(C[C@H]3C[C@@H](C(F)(F)F)CNC3=O)c(C3CCOCC3)nc2n1)[C@H]1CC[C@H](C)CC1 [Compound 218, 1-methyl-N—((S)-((1r,4S)-4-methylcyclohexyl)(2-(((3R,5R)-2-oxo-5-(trifluoromethyl)piperidin-3-yl)methyl)-3-(tetrahydro-2H-pyran-4-yl)imidazo[1,2-b][1,2,4]triazin-6-yl)methyl)-1H-pyrazole-5-carboxamide] | < 100 nM | < 100 nM
CCn1nccc1C(=O)N[C@H](c1cn2nc(C[C@H]3C[C@H](C)CNC3=O)c(C3CCOCC3)nc2n1)C1CCC(F)(F)CC1 [Compound 219] | < 100 nM | 100 to 1000 nM
CCn1nccc1C(=O)N[C@H](c1cn2nc(C[C@@H]3C[C@H](C)CNC3=O)c(C3CCOCC3)nc2n1)C1CCC(F)(F)CC1 [Compound 220] | < 100 nM | 100 to 1000 nM
